The results in this text go back to article PMC5534107, “Sensitization of ASIC3 by proteinase-activated receptor 2 signaling contributes to acidosis-induced nociception” (Journal of Neuroinflammation, 2017).

Experiment [1] relates to heteromeric ASIC1a+3 channels expressed with PAR2 in CHO cells. The experiment can be described thus: Whole-cell patch clamp, heteromeric ASIC1a+3 channels expressed with PAR2 in CHO cells. Type of experiment: cell-based, Chinese hamster. The conditions noted are these: PAR2-AP 10^−5 M for 1 min; I pH 6.6; ASIC3:other subunit 1:3; n = 8. On the procedure: ASIC3, ASIC1a, ASIC1b, ASIC2b, and PAR2 complementary DNAs (cDNAs) were used for heterologous expression in CHO cells as described previously (Wang et al., 2013). In brief, CHO cells were cultured at 37 °C in a humidified atmosphere of 5% CO2 and […] and passaged twice a week. Transient transfection of CHO cells was performed using HilyMax liposome transfection reagent (Dojindo Laboratories). CHO cells were maintained in F-12 Nutrient Mixture (added 1.176 g of NaHCO3/L medium) supplemented with 10% fetal bovine serum and 1% gluta-MAXTM-1 (100×; Invitrogen). When ASIC3 and PAR2 cDNAs were co-transfected, the ratio was kept at 1:1. All plasmids used contained, in addition to the desired ASIC3 cDNA, the coding sequence for enhanced green fluorescent protein to aid identification of transfected cells. Electrophysiological measurements were performed 24–48 h after transfection.
Whole-cell patch clamp and voltage clamp recordings were carried out at room temperature (22–25 °C) using a MultiClamp-700B amplifier and Digidata-1440A A/D converter (Axon Instruments, CA, USA). […]
(§1) Drugs purchased from Sigma and used in the experiments include hydrochloric acid, 2-furoyl-LIGRLO-NH2 (a PAR2-activating peptide (PAR2-AP)), trypsin, FSLLRY-NH2, APETx2, and capsazepine. […] The application pipette tips were positioned ∼30 μm away from the recorded neurons. […]
For orientation: The patch-clamp technique gives a direct electrical read-out from membranes.

Experiment [2] concerns ASIC3-like currents in rat DRG neurons. The experiment can be described thus: Voltage clamp of proton-evoked ASIC3-like currents in acutely isolated rat DRG neurons. Type of experiment: cell-based. To be noted: 10^−5 M for 1 min; capsazepine 10 μM present; −60 mV; n = 9.
Excerpt: The experimental protocol was approved by the animal research ethics committee of Hubei University of Science and Technology (No. 2016–67). All procedures conformed to international guidelines on the ethical use of animals, and every effort was made to minimize the number of animals used and their sufferings. Five- to 6-week-old Sprague–Dawley male rats were anesthetized with 7% chloral hydrate and then decapitated. The DRGs were taken out and transferred immediately into Dulbecco’s modified Eagle’s medium (DMEM, Sigma) at pH 7.4. After the removal of the surrounding connective tissues, the DRGs were minced with fine spring scissors and the ganglion fragments were placed in a flask containing 5 ml of DMEM in which trypsin (type II-S, Sigma) 0.5 mg/ml, collagenase (type I-A, Sigma) 1.0 mg/ml, and DNase (type IV, Sigma) 0.1 mg/ml had been dissolved and incubated at 35 °C in a shaking water bath for 25–30 min. Soybean trypsin inhibitor (type II-S, Sigma) 1.25 mg/ml was then added to stop trypsin digestion. The incubating solution was then replaced by external solution. Dissociated neurons were placed into a 35-mm Petri dish and kept for at least 1 h in normal external solution before the start of electrophysiological experiments. After plating of the DRG neurons, the neurons were used for experiments within 24 h. The neurons selected for electrophysiological experiment were 15–35 μm in diameter.
Whole-cell patch clamp and voltage clamp recordings were carried out at room temperature (22–25 °C) using a MultiClamp-700B amplifier and Digidata-1440A A/D converter (Axon Instruments, CA, USA). Recording pipettes were pulled using a Sutter P-97 puller (Sutter Instruments, CA, USA). The micropipettes were filled with internal solution containing (mM) KCl 140, MgCl2 2.5, HEPES 10, EGTA 11, and ATP 5; its pH was adjusted to 7.2 with KOH, and osmolarity was adjusted to 310 mOsm/L with sucrose. Cells were bathed in an external solution containing (mM) NaCl 150, KCl 5, CaCl2 2.5, MgCl2 2, HEPES 10, D-glucose 10; its osmolarity was adjusted to 330 mOsm/L with sucrose and its pH to 7.4. The resistance of the recording pipette was in the range of 3–6 MΩ. A small patch of membrane underneath the tip of the pipette was aspirated to form a giga seal, and then, a negative pressure was applied to rupture it, thus establishing a whole-cell configuration. The series resistance was compensated for by 70–80%. The adjustment of capacitance compensation was also done before recording the membrane currents. […]
as §1

For the substance 2-furoyl-LIGRLO-NH2 [PAR2-AP], the “increase of peak current of heteromeric ASIC1a+3 channels” value in experiment [1] is 51.6 ± 6.5%. The “increase of peak amplitude of I pH 6.6 in DRG neurons after agonist pretreatment” value in experiment [2] is 57.1 ± 9.8%.
